In US20230065799A1, “METHOD FOR ATTRIBUTING OLFACTORY TONALITIES TO OLFACTORY RECEPTOR ACTIVATION AND METHODS FOR IDENTIFYING COMPOUNDS HAVING THE ATTRIBUTED TONALITIES” (FIRMENICH SA, priority 2019, published 2023):

Target: T1, OR5B12 (Homo sapiens, UniProt Q96R08)
T1 construct: Lucy (cleavable signal peptide) (N); FLAG (N); Rho (first 20 aa of bovine rhodopsin) (N); expressed in transfected cells
T1 sequence (Q96R08 1-314): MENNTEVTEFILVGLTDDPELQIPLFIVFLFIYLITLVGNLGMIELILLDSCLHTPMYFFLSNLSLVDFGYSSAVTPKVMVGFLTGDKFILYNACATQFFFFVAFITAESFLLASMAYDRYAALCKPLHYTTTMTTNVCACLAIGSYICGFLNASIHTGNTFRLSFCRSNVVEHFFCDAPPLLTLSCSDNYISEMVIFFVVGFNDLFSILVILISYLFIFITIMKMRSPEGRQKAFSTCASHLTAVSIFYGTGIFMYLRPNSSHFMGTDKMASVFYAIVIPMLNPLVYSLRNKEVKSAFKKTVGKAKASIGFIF
Assay: OR5B12 cell-based cAMP HTRF assay
Conditions: dose-response; 100% = full agonist

Row | Molecule | OR5B12 % Efficacy [%]
1 | CCCCC[C@@H]1C(=O)CC[C@@H]1CC(=O)OC [Hedione, methyl 2-[(1~{R},2~{S})-3-oxo-2-pentylcyclopentyl]acetate] | 86
2 | methyl 2-[(1~{S},2~{S})-3-oxo-2-pentylcyclopentyl]acetate; methyl 2-[(1~{R},2~{S})-3-oxo-2-pentylcy clopentyl]acetate [Jasmodione] | 98
